Legend:
Measles morbillivirus [1] = assay: Antiviral activity against Measles virus Alaska in Vero cells assessed as inhibition of cytopathic effect; assay type: functional, organism-based
[2] = Cytotoxicity against african green monkey Vero cells by MTT assay; assay type: cell-based; conditions: chlorocebus sabaeus
Measles morbillivirus [3] = assay: Antiviral activity against Measles virus Alaska in Vero cells assessed as reduction of viral titer; assay type: functional, organism-based
[4] = Cytotoxicity against african green monkey Vero cells by trypan blue exclusion assay; assay type: cell-based; conditions: chlorocebus sabaeus
Measles morbillivirus [5] = assay: Antiviral activity against Measles virus Edmonston; assay type: functional, organism-based
[6] = (§1) Selectivity index, ratio of CC50 for african green monkey Vero cells to EC50 for Measles virus Alaska; assay type: toxicity, cell-based; conditions: read-out: Ratio CC50/EC50
[7] = as §1; assay type: toxicity, cell-based; conditions: read-out: Ratio CC50/EC50; remark: listed apart in the source
[8] = Selectivity index, ratio of CC50 for Vero cells to EC50 for Measles virus Leningrad 16; assay type: toxicity, cell-based; conditions: monkey, read-out: Ratio CC50/EC50

| SMILES | EC50 (Measles morbillivirus [1]) | CC50 [2] | EC50 (Measles morbillivirus [3]) | other results |
| --- | --- | --- | --- | --- |
| CC1CCCCN1S(=O)(=O)c1ccc(NC(=O)c2cc(C(F)(F)F)nn2C(C)C)cc1 (configuration not stated) | > 75 µM | > 300 µM | – | – |
| Cn1nc(C(F)(F)F)cc1C(=O)Nc1ccc(S(=O)(=O)N2CCCCCCC2)cc1 | < 2.3 µM | 16 µM | 0.045 µM | – |
| COC=C1CCN(S(=O)(=O)c2ccc(NC(=O)c3cc(C(F)(F)F)nn3C)cc2)CC1 | > 75 µM | 92 µM | – | – |
| Cn1nc(C(F)(F)F)cc1C(=O)Nc1ccc(S(=O)(=O)N2CCC(NC(=O)OC(C)(C)C)CC2)cc1 | 14.1 µM | > 300 µM | – | – |
| CC1CCN(S(=O)(=O)c2ccc(NC(=O)c3cc(C(F)(F)F)nn3C)cc2)CC1 | < 2.3 µM | > 300 µM | 0.035 µM | CC50 [4]: 53 µM |
| Cn1nc(C(F)(F)F)cc1C(=O)Nc1ccc(S(=O)(=O)N2CCC(O)CC2)cc1 | 6.8 µM | 274 µM | 0.57 µM | – |
| Cn1nc(C(F)(F)F)cc1C(=O)Nc1ccc(S(=O)(=O)OC2CCCCC2)cc1 | > 75 µM | > 300 µM | – | – |
| Cn1nc(C(F)(F)F)cc1C(=O)Nc1ccc(S(=O)(=O)NC2CCCCC2)cc1 | > 15 µM | 15 µM | – | – |
| Cn1nc(C(F)(F)F)cc1C(=O)Nc1ccc(S(=O)(=O)N2CCC(N)CC2)cc1 | > 75 µM | > 300 µM | – | – |
| NC(=O)c1ccc([N+](=O)[O-])cc1NC(=O)Cc1ccccc1 | – | – | – | EC50 (Measles morbillivirus [5]): 0.6 µM |
| CN(C)S(=O)(=O)c1ccc(NC(=O)c2cc(C(F)(F)F)nn2C)cc1 | 6.3 µM | > 300 µM | – | – |
| CCN(CC)S(=O)(=O)c1ccc(NC(=O)c2cc(C(F)(F)F)nn2C)cc1 | < 2.3 µM | > 300 µM | 0.019 µM | CC50 [4]: 280 µM |
| Cn1nc(C(F)(F)F)cc1C(=O)Nc1ccc(S(=O)(=O)N2CCCCC2C(=O)OC(C)(C)C)cc1 (configuration not stated) | > 38 µM | 38 µM | – | – |
| CC(C)CN(CC(C)C)S(=O)(=O)c1ccc(NC(=O)c2cc(C(F)(F)F)nn2C)cc1 | > 13.8 µM | 13.8 µM | – | – |
| Cn1nc(C(F)(F)F)cc1C(=O)Nc1ccc(S(=O)(=O)N2CCN(CCOCCO)CC2)cc1 | > 75 µM | > 300 µM | – | – |
| CN(C(=O)c1cc(C(F)(F)F)nn1C)c1ccc(S(=O)(=O)N2CCCCC2)cc1 | > 75 µM | 286 µM | – | – |
| COC(=O)c1ccccc1-n1nc(C(F)(F)F)cc1C(=O)Nc1ccc(S(=O)(=O)N2CCCC2)cc1 | > 75 µM | – | > 75 µM | CC50 [4]: > 300 µM |
| CC1CCCCN1S(=O)(=O)c1cccc(NC(=O)c2cc(C(F)(F)F)nn2C)c1 (configuration not stated) | > 75 µM | 84 µM | – | – |
| Cn1nc(C(F)(F)F)cc1C(=O)Nc1ccc(S(=O)(=O)N2CCCCCC2)cc1 | < 2.3 µM | > 300 µM | 0.005 µM | CC50 [4]: 425 µM |
| CCn1nc(C(F)(F)F)cc1C(=O)Nc1ccc(S(=O)(=O)N2CCCCC2C)cc1 (configuration not stated) | < 2.3 µM | 30 µM | 0.055 µM | – |
| CC1CCCCN1S(=O)(=O)c1ccccc1NC(=O)c1cc(C(F)(F)F)nn1C (configuration not stated) | > 75 µM | > 300 µM | – | – |
| CCC1CCCCN1S(=O)(=O)c1ccc(NC(=O)c2cc(C(F)(F)F)nn2C)cc1 (configuration not stated) | < 2.3 µM | > 300 µM | 0.087 µM | CC50 [4]: 14 µM |

| SMILES | EC50 (Measles morbillivirus [1]) | CC50 [2] | EC50 (Measles morbillivirus [3]) | other results |
| --- | --- | --- | --- | --- |
| CC1CCCCN1S(=O)(=O)c1ccc(NC(=O)c2cc(C(F)(F)F)nn2C)cc1 (configuration not stated) | < 2.3 µM | > 300 µM | 0.029 µM | CC50 [4]: 54 µM |
| Cn1nc(C(F)(F)F)cc1C(=O)Nc1ccc(S(=O)(=O)N2CCOCC2)cc1 | 43 µM | > 300 µM | – | – |
| Cn1nc(C(F)(F)F)cc1C(=O)Nc1ccc(S(=O)(=O)N2CCNCC2)cc1 | 28 µM | – | – | – |
| COC(=O)C1CCCCN1S(=O)(=O)c1ccc(NC(=O)c2cc(C(F)(F)F)nn2C)cc1 (configuration not stated) | 10 µM | 136 µM | – | – |
| C=CCN(CC=C)S(=O)(=O)c1ccc(NC(=O)c2cc(C(F)(F)F)nn2C)cc1 | 3.3 µM | 34 µM | – | – |
| Nc1ccc(O)c(NC(=O)Cc2ccccc2)c1 | – | – | – | EC50 (Measles morbillivirus [5]): 0.26 µM |
| Cn1nc(C(F)(F)F)cc1C(=O)Nc1ccc(S(=O)(=O)N2CCN(C(=O)OC(C)(C)C)CC2)cc1 | > 75 µM | > 300 µM | – | – |
| Cn1nc(C(F)(F)F)cc1C(=O)Nc1ccc(S(=O)(=O)N2CCCCC2)cc1 | < 2.3 µM | > 300 µM | 0.014 µM | selectivity ratio [6]: > 130; selectivity ratio [7]: 14200 |
| Cn1nc(C(F)(F)F)cc1C(=O)Nc1ccc(S(=O)(=O)N2CCCCC2CO)cc1 (configuration not stated) | < 2.3 µM | – | 0.85 µM | – |
| CC1CCCC(C)N1S(=O)(=O)c1ccc(NC(=O)c2cc(C(F)(F)F)nn2C)cc1 (configuration not stated) | < 2.3 µM | > 300 µM | 0.014 µM | CC50 [4]: 328 µM |
| Cn1nc(C(F)(F)F)cc1C(=O)Nc1ccc(S(=O)(=O)N2CCC[C@H]2C(=O)O)cc1 | 23 µM | > 300 µM | – | – |
| CC1CCCCN1S(=O)(=O)c1ccc(NC(=O)c2cc(C(F)(F)F)nn2Cc2ccccc2)cc1 (configuration not stated) | > 19 µM | – | > 19 µM | CC50 [4]: 19 µM |
| Cn1nc(C(F)(F)F)cc1C(=O)Nc1ccc(S(=O)(=O)N2CCC(C(F)(F)F)CC2)cc1 | 2.3 µM | 159 µM | 0.02 µM | – |
| CCCN(CCC)S(=O)(=O)c1ccc(NC(=O)c2cc(C(F)(F)F)nn2C)cc1 | < 2.3 µM | > 300 µM | 0.19 µM | – |
| Cn1nc(C(F)(F)F)cc1C(=O)Nc1ccc(S(=O)(=O)N2CCCCC2C(=O)O)cc1 (configuration not stated) | > 75 µM | > 300 µM | – | – |
| Cn1nc(C(F)(F)F)c(Br)c1C(=O)Nc1ccc(S(=O)(=O)N2CCCC2)cc1 | > 75 µM | 95 µM | – | selectivity ratio [6]: < 1.3 |
| O=C(O)c1ccccc1-n1nc(C(F)(F)F)cc1C(=O)Nc1ccc(S(=O)(=O)N2CCCC2)cc1 | > 75 µM | – | > 75 µM | CC50 [4]: > 300 µM |
| NC(=O)c1ncn([C@@H]2O[C@H](CO)[C@@H](O)[C@H]2O)n1 [RIBAVIRIN] | – | – | – | selectivity ratio [8]: 14.4 |
| CC(C)N(C(C)C)S(=O)(=O)c1ccc(NC(=O)c2cc(C(F)(F)F)nn2C)cc1 | 3.5 µM | > 300 µM | 0.53 µM | – |
| Cn1nc(C(F)(F)F)cc1C(=O)Nc1ccc(S(=O)(=O)n2ccc3ccccc32)cc1 | > 13 µM | – | – | – |
| Cn1nc(C(F)(F)F)cc1C(=O)Nc1ccc(S(=O)(=O)N2CCCC2)cc1 | – | – | – | EC50 (Measles morbillivirus [5]): 0.25 µM |
| Cn1nc(C(F)(F)F)cc1C(=O)Nc1ccc(S(=O)(=O)N2CCCC(C(=O)O)C2)cc1 (configuration not stated) | > 75 µM | > 300 µM | – | – |
